Measurements reported in paper PMC6010092, “Novel hits for acetylcholinesterase inhibition derived by docking-based screening on ZINC database” (Journal of Enzyme Inhibition and Medicinal Chemistry, 2018).
Entries after “also recorded” stand apart in the source; their conditions may differ. Where two headings read alike, the source gives them in different places.

What was measured:
[1] = biological target: T1, AChE from Electrophorus electricus (eeAChE) (Electrophorus electricus, UniProt O42275); test: biochemical; type: binding
T1 construct: purchased Sigma Aldrich
T1 sequence (O42275 24-633): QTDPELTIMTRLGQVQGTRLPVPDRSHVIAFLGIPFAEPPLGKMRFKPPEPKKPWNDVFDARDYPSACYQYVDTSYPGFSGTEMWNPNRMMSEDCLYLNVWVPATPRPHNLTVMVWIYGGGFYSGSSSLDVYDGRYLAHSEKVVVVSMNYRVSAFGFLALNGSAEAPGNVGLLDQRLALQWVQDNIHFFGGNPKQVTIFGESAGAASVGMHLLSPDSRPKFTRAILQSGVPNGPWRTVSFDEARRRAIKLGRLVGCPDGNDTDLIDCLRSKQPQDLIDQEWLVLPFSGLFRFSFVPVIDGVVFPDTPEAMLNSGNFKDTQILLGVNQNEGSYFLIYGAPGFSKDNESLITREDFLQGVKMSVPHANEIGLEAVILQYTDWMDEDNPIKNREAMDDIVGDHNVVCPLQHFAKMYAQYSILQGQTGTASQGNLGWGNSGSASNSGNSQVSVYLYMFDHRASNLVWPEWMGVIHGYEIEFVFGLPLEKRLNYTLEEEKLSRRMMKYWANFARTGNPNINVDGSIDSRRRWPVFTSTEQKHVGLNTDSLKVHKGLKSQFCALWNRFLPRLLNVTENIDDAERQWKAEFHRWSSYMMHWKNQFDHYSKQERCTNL
Description: The ITC measurements[40] were performed on NanoITC tool (TA Instruments, Lindon, UT) with 190 µL sample cell and 50 µL syringe. […] The tested compounds were prepared in 5 mM stock solutions in ethanol and diluted to 0.5 mM in 50 mM Tris-HCl pH 7.4 buffer. All samples were degassed prior the experiments. The AChE solution was placed into the sample cell and titrated by the tested compounds in 25 steps of 2 µL at 5 min intervals at 25 °C. The blank samples (buffer lacking AChE) were titrated at the same conditions. The corresponding Kd values were calculated using NanoAnalyze software (TA Instruments, Lindon, UT).

NEURO-2A cells [2] = test: Neurotoxicity test, MTT-dye reduction assay; type: cell-based; conditions: for IC50: Mus musculus, N2a, 72-h incubation, MTT, read-out: IC50 Neuro2A; for Neurotoxicity on Neuro-2A cells (in words): concentrations up to 100 µM
Description: Murine neuroblastoma NEURO-2 A cells (German collection DSMZ, Braunschweig, Germany) were cultivated under standard conditions: complete medium (90% DMEM, 10% heat-inactivated FBS, and 1 × non-essential amino acids); 37 °C and5% CO2 in fully humidified atmosphere. The cell line was kept in the logarithmic growth phase by splitting 1:4 once a week using trypsin/EDTA. About 30% of the cells grow like neuronal cells. For the experimental evaluation of the cytotoxicity NEURO-2A, cells were plated in 96-well flat-bottomed cell culture plates at the recommended density of 1 × 10^6 cells/25 cm^2. After 24 h, the cells were treated with various concentrations of the investigational compounds and after 72-h incubation, a MTT-dye reduction assay was performed. Briefly, at the end of incubation, a MTT stock solution (10 mg/ml in PBS) was added (10 µL/well). Plates were further incubated at 37 °C for 4 h. Next, the formazan crystals were dissolved by the addition of 110 µL/well 5% formic acid in 2-propanol (v/v). Absorption was measured at 580 nm wavelength on an automated ELISA reader Labexim LMR1. At least six wells per concentration were used, and data were processed using the GraphPad Prism 5.0 software 2.

PAMPA BBB permeability = type: in vitro ADME; conditions: −logPe, pH 7.4, 25 °C, 4 h, lipid BBB-1
Description: The intestinal and BBB permeabilities were measured by PAMPA Permeability Analyzer (pION Inc.) at the following settings: wavelength analysed 250–500 nm, pH 7.4, temperature 25 °C, permeation time 4 h, lipid formulation GIT-0 and stirring 60 rpm and BBB-1 and no stirring, respectively. […]. Carbamazepine, ketoprofen, and ranitidine were used as controls for intestinal permeability. Theophylline, progesterone, and propranolol were used as controls for BBB permeability.

[3] = PAMPA GIT (intestinal) permeability; type: in vitro ADME; conditions: −logPe, pH 6.2, 25 °C, 4 h, lipid GIT-0
NEURO-2A cells [4] = conditions: read-out: IC50 Neuro2A; cited from earlier work
[5] = cited from earlier work

Compound | Kd ([1]; ITC, read-out: Kd) | IC50 (NEURO-2A cells [2]) | Neurotoxicity on Neuro-2A cells (in words) (NEURO-2A cells [2]) | pPe pH 7.4 BBB PAMPA (PAMPA BBB permeability) | pPe pH 6.2 GIT PAMPA [3] | Kd ([1]; 25 °C, pH 7.4, read-out: Kd ITC) | IC50 (NEURO-2A cells [4]) | CL [5] | VD^ss [5] | t1/2 [5] | Kd ITC ([1]; 25 °C, pH 7.4)
O=C(CCn1ccc2ccccc21)NCCCn1cnc2ccccc21 [Compound 2, N-[3-(benzimidazol-1-yl)propyl]-3-indol-1-yl-propanamide] | 618 nM | > 100000 nM | absence of toxicity; also recorded: non-toxic | 4.452 | 4.339 |  |  |  |  |  | 
Cn1cc(CNC(=O)N2CCC(C(N)=O)CC2)c(-c2ccccc2)n1 [Compound 6, N^1-((1-methyl-3-phenyl-1H-pyrazol-4-yl)methyl)piperidine-1,4-dicarboxamide] | 613 nM | > 100000 nM | non-toxic | 5.008 | 4.428 |  |  |  |  |  | 
CC(C)n1cc(CC(=O)NCCc2ccc(O)cc2)c2ccccc21 [Compound 10, N-[2-(4-hydroxyphenyl)ethyl]-2-(1-isopropylindol-3-yl)acetamide] |  | 53000 nM | toxic | 4.311 | 4.202 | 735 nM |  |  |  |  | 
COc1ccc2c3c1O[C@H]1C[C@@H](O)C=C[C@@]31CCN(C)C2 [GAL, galantamine] |  |  |  |  |  |  | > 50000 nM | 5.60[47] mL/min/kg | 2.30[47] L/kg | 5.30[47] h | 
COc1ccc(CC(=O)N[C@@H](CO)[C@@H](O)c2ccc(N)cc2)cc1 [Compound 8, N-((1S,2S)-1-(4-aminophenyl)-1,3-dihydroxypropan-2-yl)-2-(4-methoxyphenyl)acetamide] | 682 nM | > 100000 nM | non-toxic | 4.731 | 4.469 |  |  |  |  |  | 
Cn1cc(CNCc2ccc3ncccc3c2)c(-c2ccccc2F)n1 [Compound 4, 1-[3-(2-fluorophenyl)-1-methyl-pyrazol-4-yl]-N-(6-quinolylmethyl) methanamine] | 618 nM | 35000 nM |  | 4.258 | 4.251 |  |  |  |  |  | 
O=C(Cn1ccc2ccccc21)NCCOc1cccc2cccnc12 [Compound 5, 2-indol-1-yl-N-[2-(8-quinolyloxy)ethyl]acetamide] | 517 nM | > 100000 nM | non-toxic | 4.146 | 4.230 |  |  |  |  |  | 
Cn1cc(CNCCc2cccc3cccnc23)c(-c2cccnc2)n1 [Compound 7, N-((1-methyl-3-(pyridin-3-yl)-1H-pyrazol-4-yl)methyl)-2-(quinolin-8-yl)ethanamine] | 577 nM | > 100000 nM | non-toxic | 4.267 | 4.246 |  |  |  |  |  | 
O=C(CCn1nc(-c2ccccc2)ccc1=O)NCCc1ccccc1 [Compound 3, 3-(6-Oxo-3-phenylpyridazin-1(6H)-yl)-N-phenethylpropanamide] | 555 nM | > 100000 nM | non-toxic | 4.294 | 4.207 |  |  |  |  |  | 
CN(Cc1ccccc1-c1ccccc1)C(=O)CCn1ccccc1=O [Compound 1, N-Methyl-3-(2-oxo-1-pyridyl)-N-[(2-phenylphenyl)methyl]propanamide] | 525 nM | > 100000 nM | non-toxic | 4.540 | 4.268 |  |  |  |  |  | 
O=C(Cn1c(=O)[nH]c(=O)c2ccccc21)NCCc1cccc(F)c1 [Compound 9, 2–(2,4-dioxoquinazolin-1-yl)-N-[2-(3-fluorophenyl)ethyl]acetamide] |  | > 100000 nM |  | 4.628 | 4.361 |  |  |  |  |  | does not interact; also recorded: Non-binder
